According to ChEMBL document CHEMBL6078713, “Synthesis and mechanistic studies of 4-aminoquinoline-Isatin molecular hybrids and Schiff's bases as promising antimicrobial agents” (Eur J Med Chem, 2025):
Converted amounts (≈) assume the structure as drawn.

Columns and labels:
Pseudomonas aeruginosa [1] = test: Antibacterial activity against Pseudomonas aeruginosa MTCC 2453 assessed as diameter of zone of inhibition at 500 ug/ml by agar disk diffusion method; format: functional; conditions: read-out: DIZ
Enterococcus faecalis [2] = test: Antibacterial activity against Enterococcus faecalis MTCC 439 assessed as diameter of zone of inhibition at 500 ug/ml by agar disk diffusion method; format: functional; conditions: read-out: DIZ
Staphylococcus aureus [3] = test: Antibacterial activity against Staphylococcus aureus MTCC 902 assessed as diameter of zone of inhibition at 500 ug/ml by agar disk diffusion method; format: functional; conditions: read-out: DIZ
Escherichia coli [4] = test: Antibacterial activity against Escherichia coli MTCC 443 assessed as diameter of zone of inhibition at 500 ug/ml by agar disk diffusion method; format: functional; conditions: read-out: DIZ
Bacillus subtilis [5] = test: Antibacterial activity against Bacillus subtilis MTCC 736 assessed as diameter of zone of inhibition at 500 ug/ml by agar disk diffusion method; format: functional; conditions: read-out: DIZ
Salmonella typhi [6] = test: Antibacterial activity against Salmonella typhi assessed as diameter of zone of inhibition at 500 ug/ml by agar disk diffusion method; format: functional, Salmonella enterica subsp. enterica serovar Typhi; conditions: Salmonella enterica, read-out: DIZ
Enterococcus faecalis [7] = test: Bactericidal activity against Enterococcus faecalis MTCC 439 assessed as inhibition of bacterial growth incubated overnight; format: functional
Bacillus subtilis [8] = test: Bactericidal activity against Bacillus subtilis MTCC 736 assessed as inhibition of bacterial growth incubated overnight; format: functional
Pseudomonas aeruginosa [9] = test: Bactericidal activity against Pseudomonas aeruginosa MTCC 2453 assessed as inhibition of bacterial growth incubated overnight; format: functional
Salmonella typhi [10] = test: Antibacterial activity against Salmonella typhi assessed as inhibition of bacterial growth incubated overnight by serial dilution based spectrophotometer; format: functional, Salmonella enterica subsp. enterica serovar Typhi; conditions: Salmonella enterica
Enterococcus faecalis [11] = test: Antibacterial activity against Enterococcus faecalis MTCC 439 assessed as inhibition of bacterial growth incubated overnight by serial dilution based spectrophotometer; format: functional
Bacillus subtilis [12] = test: Antibacterial activity against Bacillus subtilis MTCC 736 assessed as inhibition of bacterial growth incubated overnight by serial dilution based spectrophotometer; format: functional
Bacillus subtilis [13] = test: Ratio of MBC for antibacterial activity against Bacillus subtilis MTCC 736 to MIC for bactericidal activity against Bacillus subtilis MTCC 736; format: functional
Staphylococcus aureus [14] = test: Antibacterial activity against Staphylococcus aureus MTCC 902 assessed as inhibition of bacterial growth incubated overnight by serial dilution based spectrophotometer; format: functional
Escherichia coli [15] = test: Antibacterial activity against Escherichia coli MTCC 443 assessed as inhibition of bacterial growth incubated overnight by serial dilution based spectrophotometer; format: functional
Pseudomonas aeruginosa [16] = test: Antibacterial activity against Pseudomonas aeruginosa MTCC 2453 assessed as inhibition of bacterial growth incubated overnight by serial dilution based spectrophotometer; format: functional
Salmonella typhi [17] = test: Ratio of MBC for antibacterial activity against Salmonella typhi to MIC for bactericidal activity against Salmonella typhi; format: functional, Salmonella enterica subsp. enterica serovar Typhi
Salmonella typhi [18] = test: Bactericidal activity against Salmonella typhi assessed as inhibition of bacterial growth incubated overnight; format: functional, Salmonella enterica subsp. enterica serovar Typhi; conditions: Salmonella enterica
Escherichia coli [19] = test: Ratio of MBC for antibacterial activity against Escherichia coli MTCC 443 to MIC for bactericidal activity against Escherichia coli MTCC 443; format: functional
Staphylococcus aureus [20] = test: Bactericidal activity against Staphylococcus aureus MTCC 902 assessed as inhibition of bacterial growth incubated overnight; format: functional
Enterococcus faecalis [21] = test: Ratio of MBC for antibacterial activity against Enterococcus faecalis MTCC 439 to MIC for bactericidal activity against Enterococcus faecalis MTCC 439; format: functional
Escherichia coli [22] = test: Bactericidal activity against Escherichia coli MTCC 443 assessed as inhibition of bacterial growth incubated overnight; format: functional
Pseudomonas aeruginosa [23] = test: Ratio of MBC for antibacterial activity against Pseudomonas aeruginosa MTCC 2453 to MIC for bactericidal activity against Pseudomonas aeruginosa MTCC 2453; format: functional

Row | Structure (SMILES) | zone of inhibition at 500 µg/mL (Pseudomonas aeruginosa [1]) [mm] | zone of inhibition at 500 µg/mL (Enterococcus faecalis [2]) [mm] | zone of inhibition at 500 µg/mL (Staphylococcus aureus [3]) [mm] | zone of inhibition at 500 µg/mL (Escherichia coli [4]) [mm] | zone of inhibition at 500 µg/mL (Bacillus subtilis [5]) [mm] | zone of inhibition at 500 µg/mL (Salmonella typhi [6]) [mm] | further results
1 | Oc1ccc(/C=N/CCNc2ccnc3cc(Cl)ccc23)cc1 | 10 | 6 | 9 | 10 | 8 | 8 | –
2 | COc1ccc(/C=N/CCNc2ccnc3cc(Cl)ccc23)cc1OC | 7 | 7 | 8 | 8 | 7 | 8 | –
3 | CN(C)c1ccc(/C=N/CCNc2ccnc3cc(Cl)ccc23)cc1 | 7 | 8 | 9 | 10 | 8 | 7 | –
4 | COc1ccc(/C=N/CCNc2ccnc3cc(Cl)ccc23)cc1 | 8 | 8 | 8 | 9 | 6 | 9 | –
5 | Clc1ccc2c(NCC/N=C/c3ccc(Br)cc3)ccnc2c1 | – | 8 | – | – | – | – | –
6 | Clc1ccc2c(NCC/N=C/c3ccccc3Cl)ccnc2c1 | 9 | 9 | 7 | 8 | 8 | 9 | –
7 | O=[N+]([O-])c1ccc(/C=N/CCNc2ccnc3cc(Cl)ccc23)cc1 | 8 | 9 | 10 | 12 | 8 | 10 | MBC (Enterococcus faecalis [7]): 256 µg/mL (≈ 722 µM); MBC (Bacillus subtilis [8]): 512 µg/mL (≈ 1440 µM); MBC (Pseudomonas aeruginosa [9]): > 512 µg/mL; MIC (Salmonella typhi [10]): 256 µg/mL (≈ 722 µM); MIC (Enterococcus faecalis [11]): 256 µg/mL (≈ 722 µM); MIC (Bacillus subtilis [12]): 512 µg/mL (≈ 1440 µM); Ratio (Bacillus subtilis [13]): 1; MIC (Staphylococcus aureus [14]): 256 µg/mL (≈ 722 µM); MIC (Escherichia coli [15]): 256 µg/mL (≈ 722 µM); MIC (Pseudomonas aeruginosa [16]): 512 µg/mL (≈ 1440 µM); Ratio (Salmonella typhi [17]): 1; MBC (Salmonella typhi [18]): 256 µg/mL (≈ 722 µM); Ratio (Escherichia coli [19]): 1; MBC (Staphylococcus aureus [20]): > 512 µg/mL; Ratio (Enterococcus faecalis [21]): 1; MBC (Escherichia coli [22]): 256 µg/mL (≈ 722 µM)
8 | O=C1Nc2ccc(Br)cc2/C1=N/CCNc1ccnc2cc(Cl)ccc12 | – | – | – | 11 | – | 11 | –
9 | CC(C)c1ccc(/C=N/CCNc2ccnc3cc(Cl)ccc23)cc1 | 12 | 7 | 9 | 10 | 8 | 10 | MBC (Pseudomonas aeruginosa [9]): > 512 µg/mL; MIC (Salmonella typhi [10]): 256 µg/mL (≈ 728 µM); MIC (Enterococcus faecalis [11]): > 512 µg/mL; MIC (Bacillus subtilis [12]): > 512 µg/mL; MIC (Staphylococcus aureus [14]): 512 µg/mL (≈ 1460 µM); MIC (Escherichia coli [15]): 256 µg/mL (≈ 728 µM); MIC (Pseudomonas aeruginosa [16]): 256 µg/mL (≈ 728 µM); Ratio (Salmonella typhi [17]): 1; MBC (Salmonella typhi [18]): 256 µg/mL (≈ 728 µM); Ratio (Escherichia coli [19]): 1; MBC (Staphylococcus aureus [20]): > 512 µg/mL; MBC (Escherichia coli [22]): 256 µg/mL (≈ 728 µM)
10 | Clc1ccc2c(NCC/N=C/c3cccs3)ccnc2c1 | 6 | 8 | 7 | 9 | 8 | 8 | –
11 | COc1ccc2c(c1)NC(=O)/C2=N\CCNc1ccnc2cc(Cl)ccc12 | – | – | – | 16 | – | 10 | –
12 | Oc1cccc(/C=N/CCNc2ccnc3cc(Cl)ccc23)c1 | 8 | 10 | 10 | 13 | 9 | 10 | MBC (Enterococcus faecalis [7]): 512 µg/mL (≈ 1570 µM); MIC (Salmonella typhi [10]): 256 µg/mL (≈ 786 µM); MIC (Enterococcus faecalis [11]): 512 µg/mL (≈ 1570 µM); MIC (Bacillus subtilis [12]): > 512 µg/mL; MIC (Staphylococcus aureus [14]): 512 µg/mL (≈ 1570 µM); MIC (Escherichia coli [15]): 256 µg/mL (≈ 786 µM); MIC (Pseudomonas aeruginosa [16]): > 512 µg/mL; Ratio (Salmonella typhi [17]): 1; MBC (Salmonella typhi [18]): 256 µg/mL (≈ 786 µM); Ratio (Escherichia coli [19]): 1; MBC (Staphylococcus aureus [20]): > 512 µg/mL; Ratio (Enterococcus faecalis [21]): 1; MBC (Escherichia coli [22]): 256 µg/mL (≈ 786 µM)
13 | FC(F)(F)c1ccc(/C=N/CCNc2ccnc3cc(Cl)ccc23)cc1 | 8 | 8 | 7 | 10 | 7 | 9 | –
14 | Clc1ccc2c(NCC/N=C/c3ccccn3)ccnc2c1 | 9 | 8 | 8 | 11 | 9 | 7 | MBC (Enterococcus faecalis [7]): 512 µg/mL (≈ 1650 µM); MBC (Bacillus subtilis [8]): > 512 µg/mL; MBC (Pseudomonas aeruginosa [9]): 512 µg/mL (≈ 1650 µM); MIC (Salmonella typhi [10]): > 512 µg/mL; MIC (Enterococcus faecalis [11]): 512 µg/mL (≈ 1650 µM); MIC (Bacillus subtilis [12]): 512 µg/mL (≈ 1650 µM); Ratio (Pseudomonas aeruginosa [23]): 1; MIC (Staphylococcus aureus [14]): 512 µg/mL (≈ 1650 µM); MIC (Escherichia coli [15]): 256 µg/mL (≈ 824 µM); MIC (Pseudomonas aeruginosa [16]): 512 µg/mL (≈ 1650 µM); Ratio (Escherichia coli [19]): 2; MBC (Staphylococcus aureus [20]): > 512 µg/mL; Ratio (Enterococcus faecalis [21]): 1; MBC (Escherichia coli [22]): 512 µg/mL (≈ 1650 µM)
